Assay results as given in patent US20040024024A1, “Aromatic sulfone hydroxamates and their use as protease inhibitors” (priority 2001, published 2004).

Tests used:
Test in all cases: In vitro MMP inhibition, Ki determination (fluorogenic substrate II)
Type in all cases: biochemical
[1] = target: T1, Human recombinant MMP-13 (Homo sapiens, UniProt P45452)
T1 construct: made in house; host or cells: baculovirus / insect cells
How it was run: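 Baculovirus-expressed proenzyme, APMA-activated; 4 μM fluorogenic MCA/Dpa peptide substrate (II), at or below Km, in Tris buffer pH 7.5 with CaCl2, 1 hr at room temperature. Fluorescence at 330/420 nm; Ki from non-linear regression with Morrison's equation, not corrected for substrate.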

[2] = target: T2, Human recombinant MMP-14 (Homo sapiens, UniProt P50281)
T2 construct: The catalytic domain enzyme was expressed in E. coli inclusion bodies, solubilized in urea; made in house
How it was run: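 Refolded E. coli-expressed MMP-14 catalytic domain, APMA- or trypsin-activated, incubated 1 h at room temperature with 4 μM fluorogenic substrate II in pH 7.5 Tris/NaCl/CaCl2 buffer; fluorescence read at 330/420 nm. Ki from Morrison-equation non-linear regression, substrate at or below Km, uncorrected for substrate.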

[3] = target: T3, Human recombinant MMP-1 (Homo sapiens, UniProt P03956)
T3 construct: made in house; host or cells: MMP-1-transfected HT-1080 cells (spent media)
T3 sequence (P03956 100-469): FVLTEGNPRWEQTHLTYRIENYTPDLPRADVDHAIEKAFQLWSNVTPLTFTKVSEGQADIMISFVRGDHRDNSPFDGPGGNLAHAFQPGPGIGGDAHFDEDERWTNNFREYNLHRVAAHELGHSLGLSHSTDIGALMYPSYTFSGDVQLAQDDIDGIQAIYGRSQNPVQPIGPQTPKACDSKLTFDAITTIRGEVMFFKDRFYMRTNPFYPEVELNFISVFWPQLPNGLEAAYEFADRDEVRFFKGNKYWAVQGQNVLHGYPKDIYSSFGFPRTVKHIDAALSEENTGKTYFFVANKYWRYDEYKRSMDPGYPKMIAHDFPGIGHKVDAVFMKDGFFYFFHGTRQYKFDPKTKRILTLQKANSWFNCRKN
How it was run: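 Activated human recombinant MMP-1 (APMA- or trypsin-activated; proenzyme from transfected HT-1080 cells) incubated 1 hr at room temperature with 4 μM MCA/Dpa fluorogenic substrate II at or below Km in Tris buffer pH 7.5 with CaCl2. Fluorescence ex 330/em 420 nm; Ki from Morrison-equation non-linear regression, uncorrected for substrate.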

SMILES | Ki ([1]; value in parenthesis) [nM] | Ki ([2]; value in parenthesis) [nM] | Ki ([3]; value in parenthesis) [nM] | Ki ([1]; value in parentheses) [nM] | Ki ([2]; value in parentheses) [nM] | Ki ([3]; value in parentheses) [nM]
Cc1ccc(-c2cccc(CCOc3ccc(S(=O)(=O)C4(C(=O)NO)CCOCC4)cc3)c2)cc1C [Example 117] | 21 | > 10000 | > 10000 | – | – | –
CN1CCC(C(=O)NO)(S(=O)(=O)c2ccc(SCCNC(=O)c3cc4ccccc4o3)cc2)CC1 [Example 536] | – | – | – | 3.4 | > 10000 | > 10000
COCCN1CCC(C(=O)NO)(S(=O)(=O)c2ccc(OCCCc3nc(-c4ccc(CC(C)C)cc4C)no3)cc2)CC1 [Example 128] | 13.8 | > 10000 | > 10000 | – | – | –
COCCN1CCC(C(=O)NO)(S(=O)(=O)c2ccc(OCCCc3cncc(-c4ccccc4)c3)cc2)CC1 [Example 508] | – | – | – | 0.141 | 2790 | 4850
COCCN1CCC(C(=O)NO)(S(=O)(=O)c2ccc(OCCCc3nc(-c4cccc5ccccc45)no3)cc2)CC1 [Example 199] | 3.09 | > 10000 | > 10000 | – | – | –
O=C(NO)C1(S(=O)(=O)c2ccc(OCCCc3cccc(-c4cccc(O)c4)c3)cc2)CCOCC1 [Example 530] | – | – | – | 7.33 | > 10000 | > 10000
Cc1cc(-c2cccc(CCOc3ccc(S(=O)(=O)C4(C(=O)NO)CCOCC4)cc3)c2)ccc1Cl [Example 118] | 18.8 | > 10000 | > 10000 | – | – | –
O=C(NCCOc1ccc(S(=O)(=O)C2(C(=O)NO)CCOCC2)cc1)c1c[nH]c2ccccc12 [Example 562] | – | – | – | 2.97 | 9270 | 2740
O=C(NO)C1(S(=O)(=O)c2ccc(OCCCc3nc(C4CCCCC4)no3)cc2)CCN(C2CC2)CC1 [Example 137] | 0.976 | > 10000 | > 10000 | – | – | –
CCN1CCC(C(=O)NO)(S(=O)(=O)c2ccc(OCCCc3cccc(-c4ccc(Cl)cc4)c3)cc2)CC1 [Example 526] | – | – | – | 3.96 | > 10000 | > 10000
CCCc1ccc(CCCOc2ccc(S(=O)(=O)C3(C(=O)NO)CCOCC3)cc2)cn1 [Example 534] | – | – | – | 0.493 | 6810 | > 10000
COCCN1CCC(C(=O)NO)(S(=O)(=O)c2ccc(OCCc3cccc(-c4cccnc4)c3)cc2)CC1 [Example 539] | – | – | – | 0.21 | 1180 | 9130
COCCN1CCC(C(=O)NO)(S(=O)(=O)c2ccc(OCCCc3cccc(-c4cccc(F)c4)c3)cc2)CC1 [Example 511] | – | – | – | 1.36 | > 10000 | > 10000
COCCN1CCC(C(=O)NO)(S(=O)(=O)c2ccc(OCCCc3cccc(-c4ccc(C#N)cc4)c3)cc2)CC1 [Example 514] | – | – | – | 0.28 | 4080 | > 10000
CCCCCCCOc1ccc(S(=O)(=O)C2(C(=O)NO)CCOCC2)cc1 [Example 507] | – | – | – | 0.19 | 444 | 3590
COCCN1CCC(C(=O)NO)(S(=O)(=O)c2ccc(OCCc3cccc(-c4ccc(F)cc4)c3)cc2)CC1 [Example 544] | – | – | – | 0.898 | > 10000 | > 10000
Cc1ccc(NC(=O)CCCOc2ccc(S(=O)(=O)C3(C(=O)NO)CCOCC3)cc2)cc1I [Example 527] | – | – | – | 0.044 | 1360 | 5100
O=C(NO)C1(S(=O)(=O)c2ccc(OCCc3cccc(-c4ccc(OC(F)(F)F)cc4)c3)cc2)CCOCC1 [Example 112] | 51.2 | > 10000 | > 10000 | – | – | –
CCc1ccc(COc2ccc(S(=O)(=O)C3(C(=O)NO)CCOCC3)cc2)cn1 [Example 552] | – | – | – | 1.78 | 2440 | > 10000

SMILES | Ki ([1]; value in parenthesis) [nM] | Ki ([2]; value in parenthesis) [nM] | Ki ([3]; value in parenthesis) [nM] | Ki ([1]; value in parentheses) [nM] | Ki ([2]; value in parentheses) [nM] | Ki ([3]; value in parentheses) [nM]
COCCN1CCC(C(=O)NO)(S(=O)(=O)c2ccc(OCCc3ccc(-c4ccc(C#N)cc4)cc3)cc2)CC1 [Example 543] | – | – | – | 0.23 | 3090 | > 10000
COCCN1CCC(C(=O)NO)(S(=O)(=O)c2ccc(OCCCc3cccc(-c4ccc(F)cc4F)c3)cc2)CC1 [Example 513] | – | – | – | 0.98 | 9270 | > 10000
CCc1ccc(CCCOc2ccc(S(=O)(=O)C3(C(=O)NO)CCOCC3)cc2)cn1 [Example 535] | – | – | – | 0.261 | 3870 | > 10000
O=C(NO)C1(S(=O)(=O)c2ccc(OCCc3ccc(-c4ccc(O)cc4)cc3)cc2)CCOCC1 [Example 531] | – | – | – | 2.72 | > 10000 | > 10000
CCCCc1ccc(CCCOc2ccc(S(=O)(=O)C3(C(=O)NO)CCOCC3)cc2)cn1 [Example 533] | – | – | – | 0.226 | 6680 | > 10000
CC(C)c1ccc(-c2cccc(CCOc3ccc(S(=O)(=O)C4(C(=O)NO)CCOCC4)cc3)c2)cc1 [Example 109] | 93.1 | > 10000 | > 10000 | – | – | –
O=C(NO)C1(S(=O)(=O)c2ccc(OCCc3cccc(-c4ccc(Cl)c(Cl)c4)c3)cc2)CCOCC1 [Example 121] | 26.9 | > 10000 | > 10000 | – | – | –
Cc1ccccc1-c1cccc(CCOc2ccc(S(=O)(=O)C3(C(=O)NO)CCOCC3)cc2)c1 [Example 116] | 5.1 | > 10000 | > 10000 | – | – | –
O=C(NO)C1(S(=O)(=O)c2ccc(OCCCOc3cccnc3)cc2)CCOCC1 [Example 560] | – | – | – | 0.616 | 549 | > 10000
COCCN1CCC(C(=O)NO)(S(=O)(=O)c2ccc(OCCc3cccc(-c4ccccn4)c3)cc2)CC1 [Example 548] | – | – | – | 0.38 | 7420 | > 10000
COCCN1CCC(C(=O)NO)(S(=O)(=O)c2ccc(OCCCc3cccc(-c4cccnc4)c3)cc2)CC1 [Example 509] | – | – | – | 0.297 | 4160 | > 10000
CCCc1ccc(COc2ccc(S(=O)(=O)C3(C(=O)NO)CCOCC3)cc2)cn1 [Example 550] | – | – | – | 0.52 | 2180 | > 10000
CCCCC(=O)CCCOc1ccc(S(=O)(=O)C2(C(=O)NO)CCOCC2)cc1 [Example 506] | – | – | – | 0.23 | 681 | 1470
COCCN1CCC(C(=O)NO)(S(=O)(=O)c2ccc(OCCCc3cccc(-c4cccs4)c3)cc2)CC1 [Example 510] | – | – | – | 0.25 | 2180 | > 10000
COc1ccc(-c2cccc(CCOc3ccc(S(=O)(=O)C4(C(=O)NO)CCOCC4)cc3)c2)cc1C [Example 119] | 31.4 | > 10000 | > 10000 | – | – | –
O=C(NO)C1(S(=O)(=O)c2ccc(OCCc3cccc(-c4ccc(Cl)cc4Cl)c3)cc2)CCOCC1 [Example 124] | 20.1 | > 10000 | > 10000 | – | – | –
CCCCc1ccc(-c2noc(CCCOc3ccc(S(=O)(=O)C4(C(=O)NO)CCOCC4)cc3)n2)c(C)c1 [Example 183] | 15.1 | > 10000 | > 10000 | – | – | –
O=C(NCCSc1ccc(S(=O)(=O)C2(C(=O)NO)CCOCC2)cc1)c1nc2ccccc2s1 [Example 598] | – | – | – | 0.27 | > 10000 | > 10000
O=C(NO)C1(S(=O)(=O)c2ccc(OCCCc3cccc(-c4ccc(Cl)c(Cl)c4)c3)cc2)CCOCC1 [Example 169] | 20.4 | > 10000 | > 10000 | – | – | –
